Here are results for five compounds from publication PMC10096842, “Identification of Flavone Derivative Displaying a 4′-Aminophenoxy Moiety as Potential Selective Anticancer Agent in NSCLC Tumor Cells” (Molecules, 2023).

As a reminder, the IC50 is the point on the concentration scale where inhibition reaches its midpoint. As usually defined, the logP is a log measure of how a compound divides between an organic and an aqueous phase.

In data set [1] the test system is A549 NSCLC cells. Nature of the data set: MTT cell viability assay, A549. Format: cell-based, human. The note with it: for IC50: Homo sapiens, A549, 72 h, MTT; for SI (Selectivity Index): IC50 HDF / IC50 A549. The method, then:
(§1) The human non-small cell lung cancer (NSCLC) and Human Dermal Fibroblasts (HDF) cell lines were all obtained from the American Type Culture Collection (ATCC). The H1975 (CRL-5908™) cell line was grown in RPMI 1640 medium (ECB2000) while the A549 (CCL-185™) and HDF were grown in complete DMEM medium (ECM0095) All cultures were supplemented with 10% fetal bovine serum (FBS), 2 mM L-glutamine, 100 U/mL penicillin, and 100 µg/mL streptomycin,. All cell lines were routinely maintained in 75 cm^2 flasks in a cell incubator at 37 °C, 5% CO2, and 95% relative humidity. The cell cultures were detached by trypsinization with 0.5% trypsin in PBS containing 0.025% EDTA. All cell culture reagents were supplied by Euroclone (Milan, Italy).
(§2) The number of metabolically active cells, and thus cell viability, was assessed by a 3-(4,5-dimethylthiazol-2-yl)-2,5-diphenyltetrazolium bromide (MTT) assay as previously described. The NSCLC cell lines (A549 and H1975) and HDF were seeded in 96-well plates to reach 50% confluence at 24 h; then, the medium was removed and replaced with 0.2 mL of fresh culture medium containing increasing compound concentrations (0–160 µM). After 72 h, the medium from each well was removed and replaced with fresh medium supplemented with MTT at a final concentration of 200 µg/mL. After incubation for 4 h at 37 °C, 0.2 mL of DMSO was added to each well followed by multiwell shaking for 4 min. The absorbance was read on a multiwell scanning microplate reader (BioTek Synergy HT MicroPlate Reader Spectrophotometer, BioTek Instruments Inc., Winooski, VT, USA) at 570 nm using the extraction buffer as a blank. The optical density in the control group (untreated cells) was considered as 100% viability. The relative cell viability (%) was calculated as (OD570 of treated samples/OD570 of untreated samples) × 100. Dose-dependent curves were therefore generated for the cytotoxic studies. The 50% inhibiting concentration (IC50) was determined by non-linear regression analysis with a three-parameter fit by utilizing SigmaPlot 12.0 Software, USA, Systat Software, Inc. SigmaPlot for Windows. Each experiment was performed at least five times in triplicate.
(In general: Tetrazolium dyes change colour on reduction, which living cells bring about.)

In data set [2] the test system is H1975 NSCLC cells. The data set is described as follows: MTT cell viability assay, H1975. Format: cell-based, human. The note with it: for IC50: Homo sapiens, NCI-H1975, 72 h, H1975, 72 h, MTT; for SI (Selectivity Index): IC50 HDF / IC50 H1975. The method, then:
as §1, §2

Data set [3] in a line: LogP determination (1-octanol/PBS partition, UV-vis). In kind it is physicochemical. The note with it: for logP: 1-octanol/PBS, pH 7.4, 1-octanol/PBS pH 7.4, read-out: Experimental LogP. The method, then: LogP was determined as previously described. Briefly, solutions of each APF were prepared in 1-octanol, and UV-vis spectra were acquired to determine the λmax. After having placed 2.5 mL of each solution in 10 mL conical centrifuge tubes, PBS was added (2.5 mL, pH 7.4) and the biphasic system was mixed using a vortex mixer (VELP Scientifica, Usmate Velate MB, Italy) followed by centrifugation (2000× g, 5 min). Then, the octanol phase absorption was measured at λmax. The partition coefficient Ko/w was calculated according to the following equation:Ko/w = [APF]oct/[APF]PBS = […] where Ai is the initial measured absorbance in octanol, pre-extraction, and Af is the final measured absorbance in octanol, post-extraction.

Data set [4] has as its system human dermal fibroblasts (HDF). Nature of the data set: MTT cell viability assay, HDF. The note with it: Fibroblast, 72 h. In kind it is cell-based. The method, then: as §1, §2
Data set [5] relates to advanced NSCLC. On the set-up: method as in PMID 12177774, PMID 17912235, PMID 36674503. The note with it: treatment of advanced NSCLC; cited from earlier work.

Regarding `Nc1ccc(Oc2ccc3oc(-c4ccccc4)cc(=O)c3c2)cc1` [APF-2, 6-(4-aminophenoxy)-2-(phenyl)-4H-chromen-4-one], the results for the IC50 in data set [1], in data set [2] and in data set [4] were 22 ± 3 µM, 50 ± 5 µM and above 160 µM, respectively. The “SI (Selectivity Index)” value is recorded as above 8 in data set [1] and above 3 in data set [2]. Besides, the “Experimental LogP” value in data set [3] (1-octanol/PBS pH 7.4) is recorded as 2.1 ± 0.3. Moreover, the logP in data set [3] was determined as 2.3.

On to `Nc1ccc(Oc2ccc3c(=O)cc(-c4cccc(Oc5ccccc5)c4)oc3c2)cc1` [APF-3, 7-(4-aminophenoxy)-2-(3′-phenoxy)phenyl-4H-chromen-4-one], for which the values for the IC50 in data set [1], in data set [2] and in data set [4] were 33 ± 2 µM, 40 ± 4 µM and 80 ± 3 µM, respectively. The “SI (Selectivity Index)” value in data set [1] and in data set [2] was 2 in each case. The logP in data set [3] stood at 3.3 ± 0.2.

For the compound `Nc1ccc(Oc2cccc3oc(-c4cccc(Oc5ccccc5)c4)cc(=O)c23)cc1` [APF-4, 5-(4-aminophenoxy)-2-(3′-phenoxy)phenyl-4H-chromen-4-one], the IC50 was 32 ± 5 µM in data set [1], above 160 µM in data set [2] and above 160 µM in data set [4]. In addition, in data set [1], the “SI (Selectivity Index)” value is listed as above 5. In addition, the logP in data set [3] is 2.9 ± 0.2.

Consider `Nc1ccc(Oc2ccc3oc(-c4ccc(Oc5ccccc5)cc4)cc(=O)c3c2)cc1` [APF-5, 6-(4-aminophenoxy)-2-(4′-phenoxy)phenyl-4H-chromen-4-one], for which the IC50 in data set [1] was determined as 7 ± 3 µM; in data set [2], 10 ± 5 µM; in data set [4] it was 55 ± 2 µM. In addition, the “SI (Selectivity Index)” value amounted to 7 in data set [1] and 5.5 in data set [2]. In addition, the logP in data set [3] stood at 3.2 ± 0.3.

For `COc1cccc2c1C(=O)c1c(O)c3c(c(O)c1C2=O)C[C@@](O)(C(=O)CO)C[C@@H]3O[C@H]1C[C@H](N)[C@H](O)[C@H](C)O1` [Doxorubicin, reference compound], the IC50 in data set [1] was 0.8 ± 0.2 µM; in data set [2] it was 2.5 ± 0.4 µM; in data set [4], 14 ± 4 µM. In addition, the figures for the “SI (Selectivity Index)” value in data set [1] and in data set [2] were 18 and 6, respectively. Also, in data set [5], the overall response rate is listed as 30–50%.
